Data from patent US20210179680A1, “POLYPEPTIDE, DERIVATIVES THEREOF, AND APPLICATION THEREOF IN PREPARATION OF DRUGS HAVING RESISTANCE TO PULMONARY FIBROSIS” (priority 2016, published 2021).
Bridge positions count the residues as written; N and C are the ends. Square brackets hold non-standard residues; d marks the D form. Peptide text beside a SMILES is read from it. S5 = C=CCCC[C@](C)(N)C(=O)O

What was measured:
[1] = test system: mice with bleomycin-induced pulmonary fibrosis; test: Pulmonary function (Flexivent) in mice with pulmonary fibrosis; type: in vivo, C57BL/6 mice; settings: 2 mg/kg i.p.
Procedure: (§1) Male C57BL/6 mice were fasted overnight, then anesthetized with 45 mg/kg sodium pentobarbital by injection intraperitoneally (i.p.), and intratracheally injected with bleomycin at a dose of 3 U/kg. The specific operation steps are as follows: cut the neck skin of the mouse with as little trauma as possible, expose the trachea with the assistance of elbow ophthalmic forceps, puncture the trachea and inject about 50 μL of bleomycin into the trachea with a microsyringe, rotate the mouse quickly and stand it upright for 5 minutes in order to make bleomycin evenly enter the left and right lobe, thereby constructing an animal model. The whole operation was performed at a surgical table at about […]. Mice in the sham operation group were intratracheally injected with an equal amount of physiological saline for injection.
(§2) Pulmonary function is a gold indicator for clinical detection of pulmonary fibrosis in patients. The decline of lung function is generally accompanied by an aggravation of fibrosis, while the improvement of lung function generally represents the recovery of lung tissue structure. Pulmonary fibrosis models were prepared according to the method described in Example 2 and administered in groups according to Table 3. On the 28th day after the construction of the animal model, the mice were anesthetized with sodium pentobarbital (45 mg/kg, i.p.). Lung function was tested by the Flexivent Small-animal respiratory mechanics and the testing methods were TLC and SnapShots (Testing method refers to Lv X, Wang X, Li K, et al. Rupatadine Protects against Pulmonary Fibrosis by Attenuating PAF-Mediated Senescence in Rodents [J]. PloS one, 2013, 8(7): e68631).
as §2, with “lung function also generally represents” for “lung function generally represents”, “to Table 9. 28 days later, the mice” for “to Table 3. On the 28th day after the construction of the animal model, the mice”, “Senescence in Rodents[J]. PloS one,” for “Senescence in Rodents [J]. PloS one,”

[2] = molecular target: T1, TRB3/MDM2 protein interaction (Homo sapiens, UniProt Q96RU7); test: Co-immunoprecipitation: inhibition of binding of MDM2 to TRB3 in BEAS-2B cells; type: cell-based; settings: BEAS-2B cells with TRB3 expression plasmid, 1 mg/mL polypeptide, 12 hours, co-IP with MDM2 antibody
T1 construct: host or cells: BEAS-2B
T1 sequence (Q96RU7 1-358): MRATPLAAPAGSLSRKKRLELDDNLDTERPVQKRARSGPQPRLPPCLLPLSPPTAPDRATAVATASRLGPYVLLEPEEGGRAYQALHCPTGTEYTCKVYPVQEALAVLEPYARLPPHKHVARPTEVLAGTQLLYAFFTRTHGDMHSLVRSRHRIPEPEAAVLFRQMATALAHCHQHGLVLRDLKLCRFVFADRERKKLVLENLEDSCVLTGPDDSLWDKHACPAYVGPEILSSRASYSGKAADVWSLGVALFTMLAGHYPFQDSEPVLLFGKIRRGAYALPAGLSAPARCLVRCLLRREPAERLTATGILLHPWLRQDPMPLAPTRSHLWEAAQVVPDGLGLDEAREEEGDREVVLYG
Procedure: 1. Human lung epithelial BEAS-2B cells (purchased from Institute of Basic Medical Sciences, Chinese Academy of Medical Sciences) were seeded in a 90 mm^2 culture dish. After the cells were adhered to the wall of culture dish, the TRB3 expression plasmid were transferred to the cells according to the method described in Example 5. After 24 hours, 1 mg/mL of the polypeptides MR2, S1, S2, S3, S4, S5, S6, S7, S8, S9, S10 or S11 prepared in Example 1 were added respectively, and the cells were incubated for 12 hours in a 37° C. incubator and then harvested.
2. Co-immunoprecipitation with MDM2 antibody was performed according to the method described in Example 3, followed by detection using TRB3 antibody.

[3] = test system: mice with bleomycin-induced pulmonary fibrosis; test: Hydroxyproline content in lung of mice with pulmonary fibrosis; type: in vivo, C57BL/6 mice; settings: 2 mg/kg i.p.; for hydroxyproline content (μg/mg protein): left lung lobes, chloramine-T method; for content of hydroxyproline in the lungs (in words): versus bleomycin group
Procedure: as §1
Hydroxyproline accounts for 13.4% (w/w) of collagen, and extremely small amount of elastin, while it is absent in other proteins. […] Pulmonary fibrosis models were prepared according to the method described in Example 2 and administered in groups according to Table 3. The content of hydroxyproline in the lobes of left lung of the animals was measured 28 days later, and the condition of pulmonary fibrosis was evaluated.
The specific method is as follows: the mice in the animal model prepared in Example 2 was feed in a SPF animal room and treated with polypeptide according to the dosing schedule of Table 3, and all left lobes of lung of the experimental animal was taken on the 21st day after the animal model was constructed and the wet weight was recorded. Then 10% (w/w) tissue homogenate was prepared by ultrasonic homogenization using physiological saline. About 150 μL of homogenate supernatant was taken, and 500 μL of alkali hydrolysate was added (provided by Hydroxyproline alkaline hydrolysis kit of Nanjing Jiancheng Bioengineering Technology Co., Ltd.). After vortex mixing, the mixture was treated with alkaline hydrolysis for 40 min under conditions of 120° C., 0.1 Kpa. After adjusting the pH value, the volume was held constant, and the supernatant was taken after performing activated carbon treatment. The hydroxyproline was determined according to the chloramine-T method (the method of the present example refers to the instruction provided with kit, which was purchased from Nanjing Jiancheng Bioengineering Technology Co., Ltd.). […] In FIG. 10, “##” represents that P value is less than 0.01 when comparing the content of hydroxyproline in the administration group with that in the sham operation group; and “*” represents that P value is less than 0.05 and“**” represents that P value is less than 0.01 when comparing the content of hydroxyproline in the administration group with that in bleomycin group.
Hydroxyproline accounts for 13.4% (w/w) of collagen, and accounts for extremely small amount of elastin, while it is absent in other proteins. […] Pulmonary fibrosis models were prepared according to the method described in Example 2 and administered in groups according to Table 3. The content of hydroxyproline in the all lobes of left lung of the animals was measured 28 days later, and the condition of pulmonary fibrosis was evaluated.
The specific method is as follows: the mice in the animal model prepared in Example 2 was feed in an SPF animal room and treated with polypeptide according to the dosing schedule of Table 3, and all the left lobes of lung of the experimental animal was taken on the 21st day after the animal model was constructed and the wet weight was recorded. Then 10% (w/w) tissue homogenate was prepared by ultrasonic homogenization using physiological saline. About 150 μL of homogenate supernatant was taken, and 500 μL of alkali hydrolysate was added (provided by Hydroxyproline alkaline hydrolysis kit of Nanjing Jiancheng Bioengineering Technology Co., Ltd.). After vortex mixing, the mixture was treated with alkaline hydrolysis for 40 min under conditions of 120° C., 0.1 Kpa. […]

[4] = Table 3 groups, 28th day after model construction

Row | Compound | Dynamic compliance (mL/cmH2O) [1, 4] | Dynamic elasticity (cmH2O./mL) [1, 4] | Dynamic resistance (cmH2O · s/Ml) [1, 4] | Inspiratory capacity [1, 4] | pulmonary function of mice with pulmonary fibrosis (in words) ([1]; Table 3 groups, FIG. 11) | interaction of TRB3 and MDM2 protein (FIG. 5, in words) [2] | hydroxyproline content (μg/mg protein) ([3]; Table 3 groups) | Dynamic compliance (mL/cmH2O) ([1]; Table 9 groups, 28 days later) | Dynamic elasticity (cmH2O./mL) ([1]; Table 9 groups, 28 days later) | Dynamic resistance (cmH2O · s/Ml) ([1]; Table 9 groups, 28 days later) | Inspiratory capacity ([1]; Table 9 groups, 28 days later) | pulmonary function of mice with pulmonary fibrosis (in words) ([1]; Table 9 groups, FIG. 17) | hydroxyproline content (μg/mg protein) ([3]; S19-S21 groups) | content of hydroxyproline in the lungs (in words) ([3]; S19-S21 groups)
1 | CSCC[C@@H]1NC(=O)[C@@](C)(NC(=O)[C@@H](N)Cc2c[nH]cn2)CCCC=CCCC[C@@](C)(C(=O)N[C@H](C(=O)N[C@@H](CS)C(=O)N[C@@H](C)C(=O)N[C@@H](CCCCN)C(=O)N[C@@H](CCCCN)C(=O)N[C@@H](CC(C)C)C(=O)N[C@@H](CCCCN)C(=O)N[C@@H](CCCCN)C(=O)N[C@@H](CCCNC(=N)N)C(=O)O)[C@@H](C)O)NC(=O)[C@H](CS)NC(=O)[C@H](C)NC1=O [S2, His-S5-Met-Ala-Cys-S5-Thr-Cys-Ala-Lys-Lys-Leu-Lys-Lys-Arg] (H-H[S5]MAC[S5]TCAKKLKKR-OH; staple 2-6; N-terminus and C-terminus assumed) | 0.2683 mL/cmH2O | 55.33 cmH2O./mL | 1.25 cmH2O · s/Ml | 0.688 mL | improved | interrupted | 0.7063 μg/mg protein |  |  |  |  |  |  | 
2 | CSCC[C@H](NC(=O)[C@H](CC(C)C)NC(=O)[C@@H](N)Cc1c[nH]cn1)C(=O)N[C@@H](C)C(=O)N[C@@H](CS)C(=O)N[C@@H](Cc1ccccc1)C(=O)N[C@H](C(=O)N[C@@H](CS)C(=O)N[C@@H](C)C(=O)N[C@@H](CCCCN)C(=O)N[C@@H](CCCCN)C(=O)N[C@@H](CC(C)C)C(=O)N[C@@H](CCCCN)C(=O)N[C@@H](CCCCN)C(=O)N[C@@H](CCCNC(=N)N)C(=O)O)[C@@H](C)O [MR2] (H-HLMACFTCAKKLKKR-OH; N-terminus and C-terminus assumed) | 0.22 mL/cmH2O | 68.83 cmH2O./mL | 1.775 cmH2O · s/Ml | 0.456 mL | improved | interrupted | 0.9087 μg/mg protein |  |  |  |  |  |  | 
3 | S21: chimeric polypeptide Antp-MR2, amino acid sequence SEQ ID NO: 21 (RQIKIWFQNRRMKWKKGGHLMACFTCAKKLKKR; chimeric polypeptide Antp-MR2 S21) |  |  |  |  |  |  |  | 0.264 mL/cmH2O | 55.33 cmH2O./mL | 1.355 cmH2O · s/Ml | 0.616 mL | improved | 0.7488 μg/mg protein | reduce hydroxyproline content
4 | CSCC[C@H](NC(=O)[C@H](CC(C)C)NC(=O)[C@@H](N)Cc1c[nH]cn1)C(=O)N[C@@H](C)C(=O)N[C@@H](CS)C(=O)N[C@@H](Cc1ccccc1)C(=O)N[C@@]1(C)CCCC=CCCC[C@@](C)(C(=O)N[C@@H](CC(C)C)C(=O)N[C@@H](CCCCN)C(=O)N[C@@H](CCCCN)C(=O)N[C@@H](CCCNC(=N)N)C(=O)O)NC(=O)[C@H](CCCCN)NC(=O)[C@H](C)NC(=O)[C@H](CS)NC1=O [S7, His-Leu-Met-Ala-Cys-Phe-S5-Cys-Ala-Lys-S5-Leu-Lys-Lys-Arg] (H-HLMACF[S5]CAK[S5]LKKR-OH; staple 7-11; N-terminus and C-terminus assumed) | 0.29 mL/cmH2O | 51 cmH2O./mL | 0.8833 cmH2O · s/Ml | 0.684 mL | improved | interrupted | 0.655 μg/mg protein |  |  |  |  |  |  | 
5 | S19: chimeric polypeptide Pep2-MR2, amino acid sequence SEQ ID NO: 19 (HLYVSPWGGHLMACFTCAKKLKKR; chimeric polypeptide Pep2-MR2 S19) |  |  |  |  |  |  |  | 0.33 mL/cmH2O | 38.67 cmH2O./mL | 1.143 cmH2O · s/Ml | 0.692 mL | improved | 0.5637 μg/mg protein | reduce hydroxyproline content
6 | S20: chimeric polypeptide TAT-MR2, amino acid sequence SEQ ID NO: 20 (YGRKKRRQRRRGGHLMACFTCAKKLKKR; chimeric polypeptide TAT-MR2 S20) |  |  |  |  |  |  |  | 0.264 mL/cmH2O | 52.17 cmH2O./mL | 1.588 cmH2O · s/Ml | 0.422 mL | improved | 0.7443 μg/mg protein | reduce hydroxyproline content
